{
  "source": "patent US8637461B2",
  "about": "“Method of diagnosing and treating oxidative stress-impaired wound healing” (Kuwait University, priority 2011, dated 2014)",
  "key": {"[1]": {"test_system": "dermal fibroblasts", "experiment": "Radiolabelled proline uptake assay (collagen synthesis) in fibroblasts", "assay_type": "cell-based, rat", "conditions": "diabetic, TNF-α- or dexamethasone-exposed cells; EUK-134", "description": "(§1) Primary dermal fibroblasts were obtained from dorsal skin of female Goto Kakizaki (GK, age 12-15 months) rats, a model for non-obese type 2 diabetes, and their Wistar control counterparts. After sterilization in povidine solution, rat skin was washed in sterile water and rinsed in 70% ethanol in PBS. Epidermis and dermis were separated following overnight incubation in 0.25% trypsine/EDTA at 4 C. Dermis was cut into small pieces and incubated in Dulbecco's modified Eagle medium (DMEM; Invitrogen) containing collagenase (250 U/ml; Sigma) for thirty min at 37 C in 5% CO2 with constant agitation. The sections were triturated vigorously to release fibroblasts, which were collected by centrifugation. […]\n(§2) A hypercortisolemic state was mimicked by exposing control fibroblasts to dexamethasone (Dexa, Sigma) administered at 20 ng/ml every other day for a duration of 8 days. […] The concentration of IGF-1 (50 ng/ml, Peprotech) was determined by prior dose response experiment.\nThe proliferation and collagen synthesis of cultured fibroblasts were determined using, respectively the 5-bromo-2-deoxyuridine (BrdU) incorporation into DNA and a radiolabelled proline uptake assay.\nA radiolabel proline uptake assay was used in the quantification of the rate of collagen synthesis in cultured fibroblasts derived from various experimental groups. […]"}, "[2]": {"test_system": "PI3K-p85α / IRS-1", "experiment": "Co-precipitation of PI3K p85α with IRS-1 in dermal fibroblasts", "assay_type": "cell-based, rat", "conditions": "diabetic, TNF-α- or dexamethasone-exposed fibroblasts; EUK-134", "description": "as §1, §2\nLevels/activities of key intracellular molecules in the IGF-1 signaling cascade including IRS-1, IRS-1 Tyr-p-612, PI3K-p85α, IRS-1 Ser-p (307), PI3K, Akt, p-Akt, INK and p-JNK were assessed using western blotting/immunoprecipitation and commercially available ELISA-based assays. […]"}, "[3]": {"test_system": "COL1A1 mRNA", "experiment": "Real time PCR of COL1A1 mRNA in fibroblasts", "assay_type": "cell-based, rat", "conditions": "diabetic, TNF-α- or dexamethasone-exposed cells; EUK-134", "description": "(§3) Primary dermal fibroblasts were obtained from dorsal skin of female Goto Kakizaki (GK, age 12-15 months) rats, a model for non-obese type 2 diabetes, and their Wistar control counterparts. After sterilization in povidine solution, rat skin was washed in sterile water and rinsed in 70% ethanol in PBS. Epidermis and dermis were separated following overnight incubation in 0.25% trypsine/EDTA at 4 C. Dermis was cut into small pieces and incubated in Dulbecco's modified Eagle medium (DMEM; Invitrogen) containing collagenase (250 U/ml; Sigma) for thirty min at 37 C in 5% CO2 with constant agitation. The sections were triturated vigorously to release fibroblasts, which were collected by centrifugation. The cell pellet was washed two times with PBS, re-suspended in complete medium (DMEM supplemented with 10% fetal calf serum, penicillin (100 U/ml), streptomycin (100 μg/ml)), 2 mM L-glutamine and 10 mM HEPES) and then cultured under a standard condition.\nas §2, with “days. Similarly, the state of low-grade inflammation in fibroblasts was recapitulated experimentally by exposing these cells to TNF-α (4 ng/ml every day for 4 days).” for “days.”, “experiment. […]” for “experiment.”"}, "[4]": {"test_system": "reactive oxygen species (ROS)", "experiment": "ROS generation in cultured fibroblasts (DCF-DA)", "assay_type": "cell-based, rat", "description": "as §3\nas §2, with “days. Similarly, the state of low-grade inflammation in fibroblasts was recapitulated experimentally by exposing these cells to TNF-α (4 ng/ml every day for 4 days).” for “days.”\nROS generation in cultured fibroblasts was evaluated using dichloroflurescein-diacetate (DCF-DA, Molecular Probes), a probe that is oxidized to the fluorescent product DCF upon exposure to hydrogen peroxide, peroxynitrite, hydroxyl radical and nitric oxide. Its concentration serves as an indicator of the overall degree of intracellular oxidative stress.\nCells seeded in 96-well plates were incubated for thirty minutes at 37 C in serum free media containing 5 μM of DCF-DA. The plates were then washed twice with Krebs Ringer Buffer (KR) and the fluorescence readings were taken every 15 min for 1 hr at Ex=485 and Em=530. Subtracted background values were obtained from wells containing DCF-DA without cells. […]"}, "[5]": {"test_system": "cultured fibroblasts", "experiment": "WST-based cell viability of cultured fibroblasts", "set-up": "species or system rat", "conditions": "EUK 100 μM, LA 500 μM"}, "[6]": {"test_system": "Jun N-terminal kinase (JNK)", "experiment": "JNK phosphorylation, FACE-JNK ELISA in fibroblasts", "assay_type": "cell-based, rat", "conditions": "diabetic, TNF-α- or dexamethasone-exposed cells; EUK-134", "description": "as §1, §2\n(§4) Activation of Akt and JNK was analyzed in fixed fibroblasts using FACE-Akt and FACE-JNK (both from Active Motife). […] Labeling with antibodies was conducted according to the manufacturer's protocol and the resulting phosphoantibody signal was calculated after correction for number of cells and total Akt or JNK levels in each sample. […]"}, "[7]": {"test_system": "Akt", "experiment": "Akt phosphorylation, FACE cell-based ELISA in fixed fibroblasts", "set-up": "species or system rat", "conditions": "diabetic, TNF-α- or dexamethasone-exposed cells, EUK-134", "description": "as §1, §2, §4"}},
  "data": [
    {"smiles": "COc1cccc(C=NCCN=Cc2cccc(OC)c2[O-])c1[O-].[Cl-].[Mn+3]", "note": "[EUK-134]", "values": [
      {"measurement": "proline uptake (collagen synthesis)", "setting": "[1]", "value": "returns it to approximately control levels"},
      {"measurement": "association of PI3K p85α with IRS-1 in response to IGF-1", "setting": "[2]", "value": "restores this association"},
      {"measurement": "collagen mRNA synthesis", "setting": "[3]", "value": "returns it to approximately control levels"},
      {"measurement": "reactive oxygen species (ROS) levels", "setting": "[4]; diabetic, TNF-α- or dexamethasone-exposed cells, EUK-134", "value": "approximately restores normal ROS levels"},
      {"measurement": "HSOS (oxidative stress)", "setting": "[4]; fibroblasts with diabetic, inflammatory or hypercortisolemia phenotypes, ROS suppressors", "value": "lessen the HSOS"},
      {"measurement": "effect on cell viability (WST-based technique)", "setting": "[5]", "value": "minimum effect on cell viability"},
      {"measurement": "basal JNK activity (phosphorylation)", "setting": "[6]", "value": "returns its phosphorylation state to approximate levels found in normal fibroblasts"},
      {"measurement": "Akt phosphorylation in response to IGF-1", "setting": "[7]", "value": "partially restored"}
    ]}
  ]
}
